According to patent US10660967B2, “Curcumin conjugates and methods of use thereof” (priority 2016, dated 2020):
Read-outs that look alike come from different tables or passages of the source.

Legend:
[1] = test system: PHA-stimulated splenocytes; test: Proliferative response of PHA-stimulated splenocytes (MTT assay); assay type: cell-based; conditions: PHA 5 μg/ml, 72 hr; compounds at 5 μM (method says 10 μM); ratio of O.D. versus vehicle control
Method in brief: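 Readout was MTT absorbance (570 nm, reference 690 nm) after 72 h culture at 37° C. Splenocytes at 1×10^6 cells/well received test compound (10 μM final) alone or plus PHA 5 μg/ml as T-cell mitogen. Values are OD ratios of compound over vehicle control (stimulation index).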

[2] = test system: Salmonella typhi ATCC19430; test: Antimicrobial MIC, agar dilution; assay type: cell-based; conditions: Salmonella enterica, read-out: Minimum inhibitory concentration (MIC)
[3] = test system: carrageenan induced paw edema; test: Anti-inflammatory activity: acute carrageenan induced paw edema in rats; assay type: in vivo, Wister rats; conditions: at 4 h effect; 10 mg kg^−1 indomethacin mol equivalent
Method in brief: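 Wistar rats (120–150 g, n=6/group) received subplantar 1% carrageenan in the right hind paw, and DMSO-vehicle animals served as controls. Results are given as % inhibition of edema thickness versus control.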

[4] = test system: Pseudomonas aeruginosa ATCC27853; test: Antimicrobial MIC, agar dilution
[5] = test system: Streptococcus pyogenes ATCC19615; test: Antimicrobial MIC, agar dilution
[6] = test system: lipopolysaccharide-stimulated peritoneal macrophages; test: Production of nitric oxide by lipopolysaccharide-stimulated peritoneal macrophages (Greiss reagent); assay type: cell-based; set-up: Potency (%): % inhibition of nitric oxide production relative to lipopolysaccharide-stimulated macrophages: concentration or dose not given beside the values; conditions: LPS-stimulated peritoneal macrophages; for Nitric oxide (nitrite) concentration, μM (average ± SD): 24 h, nitrite by Greiss reagent
Method in brief: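 NO output was quantified as accumulated nitrite, reacting supernatant with Greiss reagent (sulfanilamide/α-naphthylamine) and reading at 532 nm. Beforehand, cells had been incubated 24 h at 37° C. in nitrite-free, 0.1% BSA medium with 0.5–10 ng/ml LPS, with or without catecholamines at […].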

[7] = ATCC27853, 18 h, read-out: Minimum inhibitory concentration (MIC)
[8] = ATCC27853, read-out: Minimum inhibitory concentration (MIC)
[9] = ATCC19615, 18 h, read-out: Minimum inhibitory concentration (MIC)
[10] = ATCC19615, read-out: Minimum inhibitory concentration (MIC)

Structure (SMILES)	Stimulation Index (average ± SD) [1]	MIC ([2]; 18 h) [µg/mL]	MIC [2] [µM]	Potency (% inhibition of edema relative to that of indomethacin reference standard) [3]	MIC [4, 7] [µg/mL]	MIC [4, 8] [µM]	MIC [5, 9] [µg/mL]	MIC [5, 10] [µM]	Potency (%): % inhibition of nitric oxide production relative to lipopolysaccharide-stimulated macrophages [6] [%]	Nitric oxide (nitrite) concentration, μM (average ± SD) [6] [µM]
COc1cc(/C=C/C(=O)CC(=O)/C=C/c2ccc(OC(=O)C(C)NC(=O)OCc3ccccc3)c(OC)c2)ccc1OC(=O)C(C)NC(=O)OCc1ccccc1 (racemic) [Cbz-DL-Ala-Cur, ((1E,6E)-3,5-dioxohepta-1,6-diene-1,7-diyl)bis(2-methoxy-4,1-phenylene) bis(2-(((benzyloxy)carbonyl)amino)propanoate)]	1.18 ± 0.09	0.5	0.642	115	0.25	0.321	0.125	0.161	45.41	14.91 ± 0.62
COc1cc(/C=C/C(=O)CC(=O)/C=C/c2ccc(OC(=O)[C@H](N)CCSC)c(OC)c2)ccc1OC(=O)[C@H](N)CCSC.Cl.Cl [HCl-D-Met-Cur, (2R,2′R)-1,1′-((((1E,6E)-3,5-dioxohepta-1,6-diene-1,7-diyl)bis(2-methoxy-4,1-phenylene))bis(oxy))bis(4-(methylthio)-1-oxobutan-2-aminium) chloride]	1.01 ± 0.15	0.25	0.355	113	1	1.42	0.25	0.355	49.57	13.77 ± 0.96
